Data from PubChem BioAssay AID1963847 (Molecular Pharmacology Branch, DTP, NCI, 2024).

Test system: 415267-285-R-J2-PDC complex spheroid viability
Assay: Anticancer human tumor 415267-285-R-J2-PDC patient-derived breast carcinoma cell line growth inhibition [POLQ]
Conditions: for IC50: curve of first compound; for viability, T/C: stronger effect = lower value
Method in brief: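 Complex spheroid viability model combining PDC tumour cells with endothelial (HUVEC) and MSC stromal cells. Novobiocin, ART-558 or RP6685 were tested singly and in combination with standard and investigational anticancer drugs. Each was titrated in half-log steps from near clinical Cmax, or from 10 microM where Cmax was unknown.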

[1] = second compound 0.0316 µM, first compound 0.0316 µM
[2] = second compound 0.0316 µM, first compound 0.1 µM
[3] = second compound 0.0316 µM, first compound 0.316 µM
[4] = second compound 0.0316 µM, first compound 1 µM
[5] = second compound 0.0316 µM, first compound 3.16 µM
[6] = second compound 0.0316 µM, first compound 10 µM
[7] = second compound 0.1 µM, first compound 0.0316 µM
[8] = second compound 0.1 µM, first compound 0.1 µM
[9] = second compound 0.1 µM, first compound 0.316 µM
[10] = second compound 0.1 µM, first compound 1 µM
[11] = second compound 0.1 µM, first compound 3.16 µM
[12] = second compound 0.1 µM, first compound 10 µM
[13] = second compound 0.316 µM, first compound 0.0316 µM
[14] = second compound 0.316 µM, first compound 0.1 µM
[15] = second compound 0.316 µM, first compound 0.316 µM
[16] = second compound 0.316 µM, first compound 1 µM
[17] = second compound 0.316 µM, first compound 3.16 µM
[18] = second compound 0.316 µM, first compound 10 µM
[19] = second compound 1 µM, first compound 0.0316 µM
[20] = second compound 1 µM, first compound 0.1 µM
[21] = second compound 1 µM, first compound 0.316 µM
[22] = second compound 1 µM, first compound 1 µM
[23] = second compound 1 µM, first compound 3.16 µM
[24] = second compound 1 µM, first compound 10 µM
[25] = second compound 3.16 µM, first compound 0.0316 µM
[26] = second compound 3.16 µM, first compound 0.1 µM
[27] = second compound 3.16 µM, first compound 0.316 µM
[28] = second compound 3.16 µM, first compound 1 µM
[29] = second compound 3.16 µM, first compound 3.16 µM
[30] = second compound 3.16 µM, first compound 10 µM
[31] = second compound 10 µM, first compound 0.0316 µM
[32] = second compound 10 µM, first compound 0.1 µM
[33] = second compound 10 µM, first compound 0.316 µM
[34] = second compound 10 µM, first compound 1 µM
[35] = second compound 10 µM, first compound 3.16 µM
[36] = second compound 10 µM, first compound 10 µM
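Further: spheroids exposed to compounds for one week before readout.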
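Wherever viability, T/C is given: luminescence used as stand-in measure of viable cells; 100% = DMSO vehicle control viability.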

SMILES: CC1COCCN1c1cc(C2(O)CC3CCC(C2)O3)c2cnn(-c3ccn[nH]3)c2n1 (stereo unspecified) + Nc1ccc(C#CCN(C(=O)Cc2ncc(C(F)(F)F)cc2C(F)(F)F)c2ccc(F)cc2)nn1
- IC50 (second compound 0.0316 µM): < 31.6 nM
- IC50 (second compound 0.1 µM): < 31.6 nM
- IC50 (second compound 0.316 µM): < 31.6 nM
- IC50 (second compound 1 µM): < 31.6 nM
- IC50 (second compound 3.16 µM): < 31.6 nM
- IC50 (second compound 10 µM): < 31.6 nM
- viability, T/C [1]: 19.2%
- viability, T/C [2]: 6.63%
- viability, T/C [3]: 4.19%
- viability, T/C [4]: 3.59%
- viability, T/C [5]: 4.18%
- viability, T/C [6]: 5.72%
- viability, T/C [7]: 22%
- viability, T/C [8]: 6.34%
- viability, T/C [9]: 5.38%
- viability, T/C [10]: 4.69%
- viability, T/C [11]: 3.81%
- viability, T/C [12]: 2.94%
- viability, T/C [13]: 22.7%
- viability, T/C [14]: 6.83%
- viability, T/C [15]: 4.18%
- viability, T/C [16]: 3.94%
- viability, T/C [17]: 3.9%
- viability, T/C [18]: 2.58%
- viability, T/C [19]: 18.7%
- viability, T/C [20]: 5.19%
- viability, T/C [21]: 4.87%
- viability, T/C [22]: 3.6%
- viability, T/C [23]: 3.79%
- viability, T/C [24]: 2.6%
- viability, T/C [25]: 16.6%
- viability, T/C [26]: 5.61%
- viability, T/C [27]: 4.81%
- viability, T/C [28]: 3.47%
- viability, T/C [29]: 3.8%
- viability, T/C [30]: 3.42%
- viability, T/C [31]: 16.1%
- viability, T/C [32]: 6.98%
- viability, T/C [33]: 5.96%
- viability, T/C [34]: 4.12%
- viability, T/C [35]: 3.92%
- viability, T/C [36]: 3.05%

SMILES: CC(=O)O[C@H]1C(=O)[C@@]2(C)[C@H]([C@H](OC(=O)c3ccccc3)[C@]3(O)C[C@H](OC(=O)[C@H](O)[C@@H](NC(=O)c4ccccc4)c4ccccc4)C(C)=C1C3(C)C)[C@]1(OC(C)=O)CO[C@@H]1C[C@@H]2O + Nc1ccc(C#CCN(C(=O)Cc2ncc(C(F)(F)F)cc2C(F)(F)F)c2ccc(F)cc2)nn1
- IC50 (second compound 0.0316 µM): < 9.49 nM
- IC50 (second compound 0.1 µM): < 9.49 nM
- IC50 (second compound 0.316 µM): < 9.49 nM
- IC50 (second compound 1 µM): < 9.49 nM
- IC50 (second compound 3.16 µM): < 9.49 nM
- IC50 (second compound 10 µM): < 9.49 nM
- viability, T/C (second compound 0.0316 µM, first compound 0.00949 µM): 16.4%
- viability, T/C (second compound 0.0316 µM, first compound 0.03 µM): 11.2%
- viability, T/C (second compound 0.0316 µM, first compound 0.0949 µM): 7.8%
- viability, T/C (second compound 0.0316 µM, first compound 0.3 µM): 12.3%
- viability, T/C (second compound 0.0316 µM, first compound 0.949 µM): 7.65%
- viability, T/C (second compound 0.0316 µM, first compound 3 µM): 9.67%
- viability, T/C (second compound 0.1 µM, first compound 0.00949 µM): 28.2%
- viability, T/C (second compound 0.1 µM, first compound 0.03 µM): 10.1%
- viability, T/C (second compound 0.1 µM, first compound 0.0949 µM): 7.84%
- viability, T/C (second compound 0.1 µM, first compound 0.3 µM): 8.82%
- viability, T/C (second compound 0.1 µM, first compound 0.949 µM): 5.94%
- viability, T/C (second compound 0.1 µM, first compound 3 µM): 7.04%
- viability, T/C (second compound 0.316 µM, first compound 0.00949 µM): 25.4%
- viability, T/C (second compound 0.316 µM, first compound 0.03 µM): 10.4%
- viability, T/C (second compound 0.316 µM, first compound 0.0949 µM): 8.11%
- viability, T/C (second compound 0.316 µM, first compound 0.3 µM): 6.83%
- viability, T/C (second compound 0.316 µM, first compound 0.949 µM): 6.61%
- viability, T/C (second compound 0.316 µM, first compound 3 µM): 9.16%
- viability, T/C (second compound 1 µM, first compound 0.00949 µM): 17.4%
- viability, T/C (second compound 1 µM, first compound 0.03 µM): 9.17%
- viability, T/C (second compound 1 µM, first compound 0.0949 µM): 6.64%
- viability, T/C (second compound 1 µM, first compound 0.3 µM): 8.77%
- viability, T/C (second compound 1 µM, first compound 0.949 µM): 7.65%
- viability, T/C (second compound 1 µM, first compound 3 µM): 7.96%
- viability, T/C (second compound 3.16 µM, first compound 0.00949 µM): 14.3%
- viability, T/C (second compound 3.16 µM, first compound 0.03 µM): 10%
- viability, T/C (second compound 3.16 µM, first compound 0.0949 µM): 8.75%
- viability, T/C (second compound 3.16 µM, first compound 0.3 µM): 6.53%
- viability, T/C (second compound 3.16 µM, first compound 0.949 µM): 7.79%
- viability, T/C (second compound 3.16 µM, first compound 3 µM): 7.72%
- viability, T/C (second compound 10 µM, first compound 0.00949 µM): 13.3%
- viability, T/C (second compound 10 µM, first compound 0.03 µM): 9.57%
- viability, T/C (second compound 10 µM, first compound 0.0949 µM): 8.39%
- viability, T/C (second compound 10 µM, first compound 0.3 µM): 9.61%
- viability, T/C (second compound 10 µM, first compound 0.949 µM): 8.58%
- viability, T/C (second compound 10 µM, first compound 3 µM): 8.25%

SMILES: CC(C)n1c(=O)n(C)c2cnc3cc(F)c(-c4ccc(OCCCN5CCCCC5)nc4)cc3c21 + Cc1cccc(N(C)C(=O)C2C(O)CCN2c2nc(C)cc(C(F)(F)F)c2C#N)c1
- IC50 (second compound 0.0316 µM): > 10000 nM
- IC50 (second compound 0.1 µM): > 10000 nM
- IC50 (second compound 0.316 µM): > 10000 nM
- IC50 (second compound 1 µM): > 10000 nM
- IC50 (second compound 3.16 µM): > 10000 nM
- IC50 (second compound 10 µM): > 10000 nM
- viability, T/C [1]: 88.5%
- viability, T/C [2]: 107%
- viability, T/C [3]: 100%
- viability, T/C [4]: 110%
- viability, T/C [5]: 111%
- viability, T/C [6]: 93.8%
- viability, T/C [7]: 89.7%
- viability, T/C [8]: 88.6%
- viability, T/C [9]: 105%
- viability, T/C [10]: 101%
- viability, T/C [11]: 101%
- viability, T/C [12]: 80.6%
- viability, T/C [13]: 103%
- viability, T/C [14]: 98.5%
- viability, T/C [15]: 105%
- viability, T/C [16]: 105%
- viability, T/C [17]: 111%
- viability, T/C [18]: 92.5%
- viability, T/C [19]: 102%
- viability, T/C [20]: 94.8%
- viability, T/C [21]: 108%
- viability, T/C [22]: 109%
- viability, T/C [23]: 104%
- viability, T/C [24]: 87.5%
- viability, T/C [25]: 94.4%
- viability, T/C [26]: 111%
- viability, T/C [27]: 96.7%
- viability, T/C [28]: 105%
- viability, T/C [29]: 87.5%
- viability, T/C [30]: 81.9%
- viability, T/C [31]: 99.1%
- viability, T/C [32]: 86.1%
- viability, T/C [33]: 90.4%
- viability, T/C [34]: 96.8%
- viability, T/C [35]: 87.6%
- viability, T/C [36]: 81%
